The text below walks through data of patent publication US11401255B2, “Small molecule activators of Parkin enzyme function” (Mayo Foundation for Medical Education and Research, priority 2016, dated 2022).

A value given as a limit tells only on which side of the number the result lay.

Parkin, sequence (O60260 whole entry): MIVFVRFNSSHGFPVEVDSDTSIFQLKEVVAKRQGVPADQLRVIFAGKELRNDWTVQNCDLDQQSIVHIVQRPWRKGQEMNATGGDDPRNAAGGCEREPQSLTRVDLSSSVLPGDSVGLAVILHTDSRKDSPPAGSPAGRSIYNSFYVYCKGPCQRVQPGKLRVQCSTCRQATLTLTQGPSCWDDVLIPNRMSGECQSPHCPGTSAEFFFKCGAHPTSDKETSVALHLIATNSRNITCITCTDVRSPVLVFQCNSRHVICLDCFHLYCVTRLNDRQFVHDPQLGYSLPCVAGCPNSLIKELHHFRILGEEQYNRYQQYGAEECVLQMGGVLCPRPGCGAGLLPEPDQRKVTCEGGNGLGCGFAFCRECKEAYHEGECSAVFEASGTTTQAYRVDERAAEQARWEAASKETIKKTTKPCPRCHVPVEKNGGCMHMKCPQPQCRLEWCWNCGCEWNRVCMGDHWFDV
CYP 2C9, sequence (P11712 whole entry): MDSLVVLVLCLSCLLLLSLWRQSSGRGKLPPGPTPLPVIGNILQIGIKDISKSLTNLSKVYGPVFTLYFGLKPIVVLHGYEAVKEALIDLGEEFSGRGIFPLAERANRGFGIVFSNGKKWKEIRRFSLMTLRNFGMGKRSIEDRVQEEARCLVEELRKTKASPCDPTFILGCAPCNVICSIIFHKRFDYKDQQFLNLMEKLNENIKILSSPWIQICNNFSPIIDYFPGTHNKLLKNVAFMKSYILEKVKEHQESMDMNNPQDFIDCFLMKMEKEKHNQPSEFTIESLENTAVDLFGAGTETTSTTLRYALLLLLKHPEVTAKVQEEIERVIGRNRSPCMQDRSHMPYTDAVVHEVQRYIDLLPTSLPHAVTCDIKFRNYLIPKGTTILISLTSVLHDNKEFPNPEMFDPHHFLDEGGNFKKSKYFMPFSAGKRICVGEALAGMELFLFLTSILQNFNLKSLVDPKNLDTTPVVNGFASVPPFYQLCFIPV

In one data set the target is CYP 2C9 (Homo sapiens (Human), UniProt P11712). The experiment in a line: P450-Glo CYP450 inhibition, CYP 2C9. Format: in vitro ADME. Particulars: human, P450-Glo Assay System (Promega), CYP 2C9 membranes, CYP 2C9, reference inhibitor 120 uM. The procedure:
CYP450 inhibition profiling provides valuable information regarding any possible drug-drug interactions for a test compound.
All experiments were performed using P450-Glo™ Assay Systems (Promega) in accordance with the manufacturer's protocols. The P450-Glo™ Assays provide a luminescent readout-based method for measuring cytochrome P450 activity. A conventional cytochrome P450 reaction was performed by incubating the cytochrome P450 and a luminogenic cytochrome P450 substrate. The substrates in the P450-Glo™ assays are derivatives of beetle luciferin. The derivatives themselves are not substrates for luciferase but are converted by cytochrome P450s to luciferin, which in turn reacts with luciferase to produce light. The amount of light produced was directly proportional to cytochrome P450 activity. All test points were performed in quadruplicates. Control membranes (without CYPs) represented the Negative control (baseline).
The following reference compounds were used to assess CYP inhibition: […]
As for `OC(Cn1cncn1)(Cn1cncn1)c1ccc(F)cc1F` [fluconazole, reference compound], the inhibition at 120 µM is 84.5%.

A further data set deals with TA 98. The experiment in a line: Ames Test, strain TA 98. The note with it: TA 98, positive control 0.1 μg/plate. The source says:
(§1) The test used amino acid-dependent strains of Salmonella typhimurium and Escherichia coli to detect point mutations which involved substitution, addition or deletion of one or a few DNA base pairs. Point mutations were introduced in the histidine (Salmonella typhimurium) or the tryptophan (Escherichia coli) operon, making the tester strains incapable of producing these amino acids. The test detected mutations that revert the mutations present in the bacteria, restoring the functional capability to synthesize histidine or tryptophan. The revertant bacteria were detected by the ability to grow in the absence of the amino acid required by the parent test strain. A mutagenic potential of a tested compound was assessed by exposing these bacterial strains to different concentrations of the compounds and estimating number of revertant colonies grown in the absence (trace quantities) of the amino acid.
(§2) DMSO was used as the negative control.
(§3) For each experiment, tester strain cultures were grown overnight in Oxoid nutrient broth #2 at 37° C. with shaking at 235 rpm to a density of 1-2×10^9 colony forming units/mL (OD540˜2).
(§4) The tester strain (10 μL of night culture) was mixed with the test agent (10 µL of the DMSO stock) and GM liquid medium (30 μL). The obtained mixture was incubated at room temperature for 5 min in a sterile 1.5 mL tube. Then, to the tube was added 200 μL of molten top agar stored at 44° C. to prevent solidifying. After mixing with a pipette, the mixture was poured onto the surface of a GM agar plate (2.0 mL of GM agar per plate). After solidifying the top agar, the plate was inverted and incubated at 37° C. for 48 hours. Then, results were expressed as number of revertant colonies per plate.
Regarding `O=[N+]([O-])c1ccc2c(c1)Cc1ccccc1-2` [2-nitrofluorene, reference compound], the “Mean ± SD” value is listed as 7 ± 1.41 revertant colonies per plate.

The test system of another data set is TA 1537. In words: Ames Test, strain TA 1537. The note with it: TA 1537, positive control 7.5 μg/plate (row printed 50; shifted).
Excerpt: as §1, §2, §3, §4
In the case of `Nc1c2ccccc2nc2ccccc12` [9-aminoacridine, reference compound], the “Mean ± SD” value is on record as 1119 ± 21.21 revertant colonies per plate.

A further data set concerns the target Parkin (Homo sapiens (Human), UniProt O60260). The experiment in a line: Primary HCI assay of EGFP-Parkin translocation to mitochondria. Particulars: primary assay screen, Parkin translocation to mitochondria. Format: cell-based. The procedure: GFP-Parkin is localized throughout the cell in unstressed cells but translocates to mitochondria when the mitochondrial membrane potential is compromised and Parkin is activated. After automated image acquisition of fixed cells, regions of interest of each cell were defined with the analysis software. […] To quantify the relocalization of GFP-Parkin to mitochondria, the ratio of the GFP intensity in the cytoplasm and the nucleus was calculated. Under non-stressed condition, this ratio is about 1. FIG. 1B is a bar graph showing the results of the assay with a Z factor (Z′) of 0.5-0.8, which indicates its robustness and usefulness as a screening assay. Validation of the assay has been performed by using PINK1 siRNA.
FIGS. 2A-2C show a primary HCI assay with CCCP titration. FIG. 2A is a graphic description of the primary HCI assay of EGFP-Parkin translocation. HeLa cells stably expressing GFP-Parkin were seeded with 1350 cells per well in 384-well plates (25 μL per well). Cells were allowed to attach overnight before drug was added 2× concentrated in a volume of 25 μL in triplicates. After 2 h, 50 μL of a 2× low-dose CCCP (yielding a final concentration of 3.5 μM CCCP) was added to all wells that contained test compounds and for the negative control. For positive control wells, CCCP was added in a final concentration of 10 μM. After 2 h incubation with CCCP, cells were fixed and labeled with Hoechst for at least 1 h before cells were imaged. […] Values were being normalized to negative and positive control values and plotted as % activity. Z′ was calculated for quality control. Positive controls were indicated in green, negative control wells in red. Drugs that lead to more than 50% activity are considered positive (blue).
Functional testing of compounds was performed using an established primary HCI assay for Parkin translocation, which correlates well with enzymatic activation (Fiesel et al., J. Cell Science (2014) 127:3488-3504; Fiesel et al., Human Mutation (2015) 36:774-786). In brief, 1400 HeLa cells stably expressing EGFP-Parkin were seeded into optical 384-well plates (Greiner BioOne) in 25 μL media and allowed to adhere for 40 h. Compounds 1, 2, 3, 4, and 31 were added to the plate as 2× concentrated stocks. Control wells were treated with equal volume of DMSO in media. After 2 h, unless otherwise stated, CCCP was added as 2× concentrated stock with a final assay concentration of 10 μM for PC wells and 3.5 μM for test and NC wells. This low dose of CCCP was experimentally determined by a dose response curve of CCCP to result in no Parkin translocation (FIG. 13). After another 2 h, cells were fixed in 4% paraformaldehyde for 10 min and stained with Hoechst 33342 (1:5000, Invitrogen) before plates were imaged and analyzed.
Image acquisition was performed on a BD Pathway 855 with the Attovision V1.6 software (BD Biosciences). Wells were imaged with a 20× objective using a 2×2 montage with laser autofocus. EGFP exposure time was 0.0175 sec, Hoechst 0.0015 sec. Raw images were not processed and directly analyzed using a build-in ‘RING—2 output’ algorithm. Values were exported and normalized using JMP 11 software and transferred to GraphPad Prism 7 for quality control, graphing and curve fitting for DRCs with a variable slope using four parameters. […] Values were normalized to both PC and NC values from 24 wells each per plate and the Z′ score was calculated. Plates with Z′<0.5 were repeated.
The compound `Cc1cc(NC(=O)Cn2cnc3c2CCCC3)ccc1-c1ccncc1` [Compound 28] registered an EC50 of 0.134 µM.

On to `O=C(Cn1ccnc1-c1ccccc1)Nc1ccc(-c2ccccc2)cc1` [Compound 29], for which the EC50 worked out at 2 µM. This EC50 lies about 15-fold higher than the previous one.

`Cc1nccc(-c2ccc(NC(=O)Cn3cnc4c3CCCC4)cc2)n1` [Compound 24] showed an EC50 of 0.19 µM.

For `Cc1nc2c(c(N3CCN(C(=O)c4ccccc4)CC3)n1)CCCC2` [Compound 40], the EC50 was above 10 µM.

As for `O=C(Cn1ccnc1)Nc1ccc(C23CC4CC(CC(C4)C2)C3)cc1` [Compound 10], the EC50 amounted to 5 µM.

In the case of `Cc1nc2c(c(N3CCCN(Cc4noc(C5CC5)n4)CC3)n1)CCCC2` [Compound 42], the EC50 stood at 0.707 µM.

Compound `Cc1nc2c(c(N3CCCN(Cc4csc(C)n4)CC3)n1)CCCC2` [Compound 35] yielded an EC50 of 10 µM. This EC50 lies about 14-fold higher than the previous one.

In turn, `O=C(Cn1ccnc1)Nc1ccc(OCC2CCCCC2)cc1` [Compound 8] had a 50% effective concentration (EC50) of 5 µM.

The compound `O=C(Cn1ccnc1-c1ccncc1)Nc1ccc(-c2ccccc2)cc1` [Compound 11] gave an EC50 of 5 µM.

In turn, `N#Cc1ccc(Oc2ccc(NC(=O)Cn3ccnc3)cc2)cc1` [Compound 16] returned a concentration for a half-maximal effect (EC50) of 5 µM.

On to `O=C(Cn1cnc2c1CCCC2)Nc1ccc(-c2ccccc2F)nn1` [Compound 25], for which the EC50 is 0.382 µM.

`O=C(Cn1ccnc1)Nc1ccc(SC2CCCC2)cc1` [Compound 18] yielded an EC50 of 5 µM. This EC50 lies about 13-fold higher than the previous one.

Turning to `Cc1nc2c(c(N3CCCN(Cc4cccs4)CC3)n1)CCCC2` [Compound 43], the EC50 was found to be 0.28 µM.

In turn, `O=C(Cn1ccnc1)Nc1ccc(-c2ccccc2)c(C(F)(F)F)c1` [Compound 12] had an EC50 of 5 µM.

`O=C(Nc1ccc(-c2ccccc2)cc1)c1cn2c(n1)CCCC2` [Compound 21] had an EC50 of 0.238 µM.

`O=C(Cn1cnc2c1CCCC2)Nc1cnc(-c2ccccc2)nc1` [Compound 26] showed an EC50 of 0.938 µM. This EC50 is about 3.9-fold higher than that of the compound before.

With `O=C(Cn1ccnc1)Nc1ccc(COC2CCCC2)cc1` [Compound 15], the EC50 came to 5 µM. Against the preceding compound, the EC50 is about 5.3-fold higher.

Compound `Cc1nc2c(c(N3CCN(Cc4ccccc4)C(C)(C)C3)n1)CCCC2` [Compound 44] yielded an EC50 of 0.438 µM.

`c1ccc(CN2CCCN(c3ncnc4ncccc34)CC2)cc1` [Compound 46] registered an EC50 of 0.203 µM. Compared with the last compound, the EC50 is about 2.2-fold lower.

The compound `O=C(Cc1ccncc1)Nc1ccc(-c2ccccc2)cc1` [Compound 20] had an EC50 of 10 µM.

`O=C(Cn1ccnc1)Nc1ccc(Oc2ccccc2)cc1` [Compound 14] yielded an EC50 of 5 µM.

For the compound `O=C(Cn1ccnc1)Nc1ccc(CN2CCc3ccccc32)cc1` [Compound 9], the EC50 amounted to 5 µM. That is a single-digit micromolar value.

Consider `O=C(Cn1cnc2c1CCCC2)Nc1ccc(-c2ccccn2)cc1` [Compound 23], for which the midpoint of the response, the EC50, lay at 0.272 µM.

`Cc1ccnc(-c2ccc(NC(=O)Cn3cnc4c3CCCC4)cc2)n1` [Compound 27]: the EC50 is 0.19 µM.

`O=C(Cn1ccnc1)Nc1ccc(-c2ccccc2)c(Cl)c1` [Compound 6] showed an EC50 of 2 µM.

Consider `Cc1nccn1CC(=O)Nc1ccc(-c2ccccc2)cc1` [Compound 19], for which the EC50 was determined as 10 µM. Compared with the last compound, the EC50 is about 5-fold higher.

As to `Cc1cc(NC(=O)Cn2ccnc2)ccc1-c1ccccc1` [Compound 30], a half-maximal effect (EC50) was put at 5 µM.

`Cc1nc2c(c(N3CCCN(Cc4ccc(Cl)cc4)CC3)n1)CCCC2` [Compound 45] registered an EC50 of 0.366 µM.

With `CC(C)Cc1ccc(NC(=O)Cn2ccnc2)cc1` [Compound 17], the EC50 was found to be 5 µM. This EC50 is about 14-fold higher than that of the compound before.

Compound `COc1ccc(CN2CCCN(c3ncnc4c3CN(C)CC4)CC2)cc1` [Compound 36] returned an EC50 above 10 µM.

In the case of `O=C(Cn1cnc2c1CCCC2)Nc1ccc(-c2ccccc2)cn1` [Compound 22], the EC50 was found to be 0.246 µM.

Take `O=C(Cn1ccnc1)Nc1nc(-c2ccccc2)co1` [Compound 13]: the EC50 came out at 5 µM.
